Reference: ChEMBL document CHEMBL1158229, “Two new lignans, interiotherins A and B, as anti-HIV principles from Kadsura interior” (J Nat Prod, 1996)

What was measured:
[1] = Therapeutic index, ratio of IC50 for mock-infected human H9 cells to EC50 for HIV1 3B; assay type: cell-based; conditions: for selectivity ratio: read-out: TI; for Activity: h9
H9 = assay: Cytotoxicity against mock-infected human H9 cells after 4 days; assay type: cell-based; conditions: h9, 96 h

| Compound | selectivity ratio [1] | Activity [1] | Activity (H9) |
| --- | --- | --- | --- |
| COc1c2c(cc3c1-c1c(cc4c(c1OC)OCO4)[C@H](OC(=O)c1ccccc1)[C@@H](C)[C@@H](C)C3)OCO2 [INTERIOTHERIN A] | 13.2 | – | – |
| C/C=C(/C)C(=O)O[C@H]1c2cc3c(c(OC)c2-c2c(cc4c(c2OC)OCO4)C[C@H](C)[C@]1(C)O)OCO3 [INTERIOTHERIN B] | – | Active | Not Active |
| Cc1cn([C@H]2C[C@H](N=[N+]=[N-])[C@@H](CO)O2)c(=O)[nH]c1=O [ZIDOVUDINE] | 250000 | – | – |
| COc1c2c(cc3c1-c1c(cc4c(c1OC)OCO4)[C@H](OC(=O)c1ccccc1)[C@@](C)(O)[C@@H](C)C3)OCO2 [SCHISANTHERIN D] | 50.6 | – | – |
| C/C=C(/C)C(=O)O[C@H]1c2cc3c(c(OC)c2-c2c(cc4c(c2OC)OCO4)C[C@H](C)[C@@H]1C)OCO3 [ANGELOYLGOMISIN R] | – | Active | Not Active |
